The source of these data is US6455587B1 (priority 2000, dated 2002).

pKi: −log10 of the molar value.

For the first experiment, the target named is T1, recombinant HIV-1 protease (Human immunodeficiency virus type 1 group M subtype B, UniProt P04585).
T1 construct: recombinant HIV-1 protease (final concentration 2.18 nM) purchased from Bachem Bioscience; purchased Bachem Bioscience
Kind of experiment: Enzymatic fluorometric (FRET) assay for determining the inhibition constant (Ki) against HIV protease. Type of experiment: biochemical. The conditions noted are these: Ki (nM). The source says: An Enzymatic assay for determining the inhibition constant (Ki) of synthetic compounds targeting the HIV protease may be carried out as follows: This is a fluorometric assay based on the cleavage by protease of a substrate carrying a donor group (EDANS) and an acceptor group (DABCYL) on each side of the cleavage site, interacting together through fluorescence resonance energy transfer (FRET). Cleavage of the substrate by protease stops energy exchange between the two groups, resulting in a time-dependent increase in fluorescence intensity that is linearly related to the extent of substrate hydrolysis.
The enzymatic assay is done at 31° C. in white 96-well fluorescence microplates, in a total volume of 200 μL per well. The apparatus used for analysis is a FL600 fluorescence microplate reader (Biotek Instruments). […] Excitation of the fluorophore is done at 340 nm and emission at 485 nm is recorded continuously during the reaction, allowing determination of the enzyme's initial velocity (v0). At the end of the 4 min incubation, the potential inhibitor at a defined concentration in a volume of 4 μL is added to the reaction, and fluorescence readings are taken for another 4 min, allowing determination of enzyme velocity (vi) in the presence of the inhibitory compound. Several concentrations of the putative inhibitors are tested in the assay. After calculation of v0 and vi, the inhibition constant (Ki) of the compound is determined using the equation of Henderson: [formula]
and [I]=inhibitor concentration, [S]=substrate concentration,
Km=Michaelis-Menten constant, Kiapp=apparent Ki
Graphs are traced and the Ki determined using GraphPad Prism software v. 3.0.
For orientation: Ki means a measure of affinity in units of concentration, obtained from inhibition or displacement. As for `CC(C)CN(C(CCCCNC(=O)OCc1ccccc1)C(=O)O)S(=O)(=O)c1ccc(Br)cc1` (centres unmarked) [Compound 67], the Ki was more than 100 nM. Turning to `Cc1ccc(S(=O)(=O)N(CC(C)C)C(CCCCN(CC(C)C)C(=O)CCc2ccccc2)C(=O)O)cc1` (racemic) [Compound 159, Nα, Nε-diisobutyl-Nα-(4-methylbenzenesulfonyl)-Nε-(3-phenylpropanoyl)-DL-lysine], the Ki was more than 300 nM.

Staying with this experiment, now noted: Ki (nM), fluorometric FRET assay, recombinant HIV-1 protease, pH 4.7, 31° C.
Consider `CC(C)CN([C@@H](CCCCNC(=O)C=Cc1ccccc1[N+](=O)[O-])C(=O)O)S(=O)(=O)c1ccc([N+](=O)[O-])cc1` [Compound 109, Nα-Isobutyl-Nα-(4-nitrobenzenesulfonyl)-Nε-(2-nitrocinnamoyl)-L-lysine], for which the Ki was more than 300 nM.

Turning to `CC(C)CN([C@@H](CCCCNS(=O)(=O)c1ccc([N+](=O)[O-])cc1)C(=O)O)S(=O)(=O)c1ccc([N+](=O)[O-])cc1` [Compound 116, Nα-Isobutyl-Nα,Nε-di-(4-nitrobenzenesulfonyl)-L-lysine], the Ki was more than 300 nM.

Staying with this experiment, now noted: fluorometric FRET assay, 31° C., pH 4.7, recombinant HIV-1 protease 2.18 nM, substrate 10 μM; read-out: Ki.
By pKi is commonly meant −log10 of the Ki, conventionally taken in molar units. In the case of `COc1cccc(CCC(=O)NCCCC[C@@H](C(=O)O)N(CC(C)C)S(=O)(=O)c2ccc(C)cc2)c1OC` [Compound 201, Nα-Isobutyl-Nα-(4-methylbenzenesulfonyl)-Nε-(2,3-dimethoxydihydrocinnamoyl)-L-lysine], the pKi was 7.82. As to “Nα-Isobutyl-Nα-(4-methylbenzenesulfonyl)-Nε-phenylthioacetyl-L-lysine [Compound 202]”, the pKi is 7.74. For `COc1ccc(C=CC(=O)NCCCC[C@@H](C(=O)O)N(CC(C)C)S(=O)(=O)c2ccc([N+](=O)[O-])cc2)c(OC)c1` [Compound 191, Nα-Isobutyl-Nα-(4-nitrobenzenesulfonyl)-Nε-(2,4-dimethoxycinnamoyl)-L-lysine], the pKi was less than 7.12. Consider `CC(C)CN([C@@H](CCCCNC(=O)CCc1ccc(N)cc1)C(=O)O)S(=O)(=O)c1ccc(N)cc1` [Compound 194, Nα-Isobutyl-Nα-(4-aminobenzenesulfonyl)-Nε-(4-aminodihydrocinnamoyl)-L-lysine], for which the pKi is less than 6.52.

The same experiment, now with this note: fluorometric FRET assay, recombinant HIV-1 protease, pH 4.7, 31° C.; read-out: Ki.
`CC(C)CN(CCCC[C@H](NC(=O)OCC1c2ccccc2-c2ccccc21)C(=O)O)S(=O)(=O)c1ccc(Br)cc1` [Compound 21, Nα-(9-Fluorenylmethoxycarbonyl)-Nε-isobutyl-Nε-(4-bromobenzenesulfonyl)-L-lysine]: the pKi was 5.70. Same read-out and setting: then `O=C(N[C@@H](CCCCNS(=O)(=O)c1ccc(Br)cc1)C(=O)O)C(c1ccccc1)c1ccccc1` [Compound 36, Nα-(Diphenylacetyl)-Nε-(4-bromobenzenesulfonyl)-L-lysine], with 4.62; and `CC(C)CN([C@@H](CCCCNC(=O)OCC1c2ccccc2-c2ccccc21)C(=O)O)S(=O)(=O)c1ccc(N)cc1` [Compound 44, Nα-(4-Aminobenzenesulfonyl)-Nα-isobutyl-Nε-(9-fluorenylmethoxycarbonyl)-L-lysine], with 8.68.

For the compound `Cc1ccc(S(=O)(=O)N(CC(C)C)C(CCCCNC(=O)C2c3ccccc3-c3ccccc32)C(=O)O)cc1` (centres unmarked) [Compound 83], the pKi is 6.98. With `COc1ccccc1/C=C/C(=O)NCCCC[C@@H](C(=O)O)N(CC(C)C)S(=O)(=O)c1ccc([N+](=O)[O-])cc1` [Compound 161, Nα-Isobutyl-Nα-(4-nitrobenzenesulfonyl)-Nε-(trans-2-methoxycinnamoyl)-L-lysine], the pKi is less than 6.52.

As for `O=C(N[C@@H](CCCCNS(=O)(=O)c1cccc2cccnc12)C(=O)O)OCC1c2ccccc2-c2ccccc21` [Compound 28, Nε-(8-Quinolinesulfonyl)-Nα-(9-fluorenylmethoxycarbonyl)-L-lysine], the pKi is 4.82. Take `Nc1ccc(S(=O)(=O)NCCCC[C@H](NC(=O)OCC2c3ccccc3-c3ccccc32)C(=O)O)cc1` [Compound 52, Nε-(4-Aminobenzenesulfonyl)-Nα-(9-fluorenylmethoxycarbonyl)-L-lysine]: the pKi is 5.17. For the compound `COc1cccc(CCC(=O)NCCCC[C@@H](C(=O)O)N(CC(C)C)S(=O)(=O)c2ccc(N)cc2)c1` [Compound 156, Nα-Isobutyl-Nα-(4-aminobenzenesulfonyl)-Nε-(3-methoxydihydrocinnamoyl)-L-lysine], the pKi is 7.78. Take `Cc1ccc(S(=O)(=O)N(CC(C)C)[C@@H](CCCCNC(=O)C2c3ccccc3Oc3ccccc32)C(=O)O)cc1` [Compound 85]: the pKi is 7.84. Take `O=C(NCCCC[C@H](NS(=O)(=O)c1cccc2ccccc12)C(=O)O)OCC1c2ccccc2-c2ccccc21` [Compound 102, Nα-(1-Naphthalenesulfonyl)-Nε-(9-fluorenylmethoxycarbonyl)-L-lysine]: the pKi is 5.63.

With `O=C(N[C@@H](CCNS(=O)(=O)c1ccc(Br)cc1)C(=O)O)OCC1c2ccccc2-c2ccccc21` [Compound 14, (S)-2-(9-Fluorenylmethoxycarbonylamino)-4-(4-bromobenzenesulfonylamino)-butanoic Acid], the pKi is 4.31. Regarding `COc1ccc(S(=O)(=O)N(CC(C)C)[C@@H](CCCCNC(=O)OCC2c3ccccc3-c3ccccc32)C(=O)O)cc1` [Compound 7, Nα-Isobutyl-Nα-(4-methoxybenzenesulfonyl)-Nε-(9-fluorenylmethoxycarbonyl)-L-lysine], the pKi is 7.97.

For “Nα-Isobutyl-Nα-(4-methylbenzenesulfonyl)-Nε-phenylthioacetyl-L-lysine [Compound 202]”, the pKi is 5.08. Turning to `O=C(N[C@@H](CCCCNS(=O)(=O)c1cc(Cl)ccc1Cl)C(=O)O)OCC1c2ccccc2-c2ccccc21` [Compound 54, Nε-(2,5-Dichlorobenzenesulfonyl)-Nα-(9-fluorenylmethoxycarbonyl)-L-lysine], the pKi is less than 5.20. Same read-out and setting: with `O=C(N[C@@H](CCCCNS(=O)(=O)c1ccc(Br)cc1)C(=O)O)c1ccccc1` [Compound 65, Nα-Benzoyl-Nε-(4-bromobenzenesulfonyl)-L-lysine] the figure was less than 4.30; with `CC(C)CN(C(CCCCNC(=O)OCc1ccccc1)C(=O)O)S(=O)(=O)c1ccc(Cl)cc1` (centres unmarked) [Compound 4], less than 7.00. Still for that read-out and setting: with `COC(=O)[C@H](CCCCNC(=O)OCC1c2ccccc2-c2ccccc21)N(CC(C)C)S(=O)(=O)c1ccc(C)cc1` [Compound 123, Nα-Isobutyl-Nα-(4-methylbenzenesulfonyl)-Nε-(9-fluorenylmethoxycarbonyl)-L-lysine Methyl Ester] the figure was less than 6.52.

For the compound `CC(C)CN(C(CCCCNC(=O)OCC1c2ccccc2-c2ccccc21)C(=O)O)S(=O)(=O)c1ccc(F)cc1` (racemic) [Compound 3, Nα-Isobutyl-Nα-(4-fluorobenzenesulfonyl)-Nε-(9-fluorenylmethoxycarbonyl)-DL-lysine], the pKi is 7.76.

Regarding `CC(C)CN(C(CCCCNC(=O)OCC1c2ccccc2-c2ccccc21)C(=O)O)S(=O)(=O)c1ccc(Cl)cc1` (racemic) [Compound 1, Nα-Isobutyl-Nα-(4-chlorobenzenesulfonyl)-Nε-(9-fluorenylmethoxycarbonyl)-DL-lysine], the pKi was 7.69. The same measure, in the same setting: with `CC(C)(C)OC(=O)N[C@@H](CCCCNS(=O)(=O)c1ccc(Br)cc1)C(=O)O` [Compound 143] the figure was 3.18; with `COc1cc(C=CC(=O)NCCCC[C@@H](C(=O)O)N(CC(C)C)S(=O)(=O)c2ccc([N+](=O)[O-])cc2)cc(OC)c1` [Compound 189, Nα-Isobutyl-Nα-(4-nitrobenzenesulfonyl)-Nε-(3,5-dimethoxycinnamoyl)-L-lysine], 6.97.
